Results as given in ChEMBL document CHEMBL5154776, “Discovery of Potent and Orally Bioavailable Platelet-Derived Growth Factor Receptor (PDGFR) Inhibitors for the Treatment of Osteosarcoma” (J Med Chem, 2022).
Active and inactive are the calls of the source.

Experiments:
[1] = test system: HOS-TE85; experiment: Inhibition of alpha tubulin expression in human MNNG/HOS cells assessed as effect on microtubule network at 0.1 to 0.4 uM by DAPI staining based immunofluorescence microscopic analysis; format: functional, cell-based; details: dose 0.1-0.4 µM
[2] = test system: MG-63; experiment: Inhibition of PDGFRbeta expression in human MG-63 cells incubated for 48 hrs by Western blot analysis; format: functional, cell-based
[3] = test system: HOS-TE85; experiment: Inhibition of alpha tubulin expression in human MNNG/HOS cells at 0.1 to 0.4 uM measured after 48 hrs by western blot analysis; format: functional, cell-based; details: dose 0.1-0.4 µM
[4] = test system: HOS-TE85; experiment: Antimigratory activity against human MNNG/HOS cells assessed as reduction in cell spreading area upto 48 hrs by DAPI staining based immunofluorescence microscopic analysis; format: functional; details: dose 0.1-0.4 µM, DDE = dose-dependent effect
[5] = test system: MG-63; experiment: Antiinvasive activity against human MG-63 cells assessed as expression of FAK by measuring fluorescence at 0.1 to 0.4 uM upto 48 hrs by DAPI staining based immunofluorescence microscopic analysis; format: functional, cell-based; details: dose 0.1-0.4 µM
[6] = test system: HOS-TE85; experiment: In vivo inhibition of PDGFRbeta-mediated downstream signalling in human MNNG/HOS cells xenografted in BALB/c nude mouse assessed as phosphorylation of ERK in tumor tissue at 15 to 30 mg/kg/day, po for 14 days; format: functional, organism-based; details: dose lower […], dose upper 30.0 mg/kg/day, time 14.0 day
[7] = test system: HOS-TE85; experiment: In vivo inhibition of PDGFRbeta-mediated downstream signalling in human MNNG/HOS cells xenografted in BALB/c nude mouse assessed as phosphorylation of STAT3 in tumor tissue at 15 to 30 mg/kg/day, po for 14 days; format: functional, organism-based; details: dose lower […], dose upper 30.0 mg/kg/day, time 14.0 day
[8] = test system: HOS-TE85; experiment: Induction of DNA damage in human MNNG/HOS cells assessed as tail DNA at 0.1 to 0.4 uM measured after 48 hrs by comet assay; format: functional, cell-based; details: dose 0.1-0.4 µM
[9] = test system: HOS-TE85; experiment: In vivo inhibition of PDGFRbeta-mediated downstream signalling in human MNNG/HOS cells xenografted in BALB/c nude mouse assessed as phosphorylation of AKT in tumor tissue at 15 to 30 mg/kg/day, po for 14 days; format: functional, organism-based; details: dose lower […], dose upper 30.0 mg/kg/day, time 14.0 day
[10] = target: T1, Platelet-derived growth factor receptor beta (Homo sapiens, UniProt P09619); experiment: Inhibition of PDGFRbeta-mediated downstream signalling in human MG-63 cells assessed as suppression of AKT phosphorylation at 0.1 uM measured after 48 hrs by western blot analysis; format: cell-based
T1 sequence (P09619 whole entry): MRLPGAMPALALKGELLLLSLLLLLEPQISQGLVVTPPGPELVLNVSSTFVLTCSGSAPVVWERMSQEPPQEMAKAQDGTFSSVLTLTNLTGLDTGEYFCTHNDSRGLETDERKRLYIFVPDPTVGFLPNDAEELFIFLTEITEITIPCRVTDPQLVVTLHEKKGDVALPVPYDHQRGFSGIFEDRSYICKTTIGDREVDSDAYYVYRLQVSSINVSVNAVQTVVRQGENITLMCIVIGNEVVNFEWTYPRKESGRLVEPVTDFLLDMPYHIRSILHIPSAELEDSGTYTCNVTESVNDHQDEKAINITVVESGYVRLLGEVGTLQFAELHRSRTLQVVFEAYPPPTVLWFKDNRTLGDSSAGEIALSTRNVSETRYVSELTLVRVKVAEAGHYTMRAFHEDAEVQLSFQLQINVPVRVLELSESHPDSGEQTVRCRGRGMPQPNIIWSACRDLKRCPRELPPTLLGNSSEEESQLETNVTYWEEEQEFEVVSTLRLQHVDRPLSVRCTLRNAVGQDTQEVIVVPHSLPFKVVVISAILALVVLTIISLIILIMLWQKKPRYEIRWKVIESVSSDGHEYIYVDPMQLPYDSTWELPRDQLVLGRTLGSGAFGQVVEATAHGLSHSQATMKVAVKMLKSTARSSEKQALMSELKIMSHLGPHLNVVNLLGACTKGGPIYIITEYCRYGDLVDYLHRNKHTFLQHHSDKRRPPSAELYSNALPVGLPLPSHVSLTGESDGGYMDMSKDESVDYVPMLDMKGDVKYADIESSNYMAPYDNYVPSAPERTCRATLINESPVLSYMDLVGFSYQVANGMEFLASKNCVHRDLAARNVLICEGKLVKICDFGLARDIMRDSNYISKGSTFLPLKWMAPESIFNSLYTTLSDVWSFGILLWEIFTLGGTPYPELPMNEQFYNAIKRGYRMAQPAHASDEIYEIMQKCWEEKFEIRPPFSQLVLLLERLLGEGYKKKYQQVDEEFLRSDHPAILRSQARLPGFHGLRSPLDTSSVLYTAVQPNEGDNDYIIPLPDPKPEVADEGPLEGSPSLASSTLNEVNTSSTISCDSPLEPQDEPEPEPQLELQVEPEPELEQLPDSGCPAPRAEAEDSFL

[11] = target: T1, Platelet-derived growth factor receptor beta; experiment: Inhibition of PDGFRbeta-mediated downstream signalling in human MG-63 cells assessed as suppression of STAT3 phosphorylation at 0.1 uM measured after 48 hrs by western blot analysis; format: cell-based
[12] = target: T1, Platelet-derived growth factor receptor beta; experiment: Inhibition of PDGFRbeta in PDGF AA/BB stimulated human MG-63 cells assessed as reduction in fluorescence intensity measured after 48 hrs by DAPI staining based immunofluorescence analysis; format: cell-based; details: dose 0.1-0.4 µM, DDE = dose-dependent effect
[13] = test system: MG-63; experiment: Inhibition of alpha tubulin expression in human MG-63 cells assessed as effect on microtubule network at 0.1 to 0.4 uM by DAPI staining based immunofluorescence microscopic analysis; format: functional, cell-based; details: dose 0.1-0.4 µM
[14] = test system: HOS-TE85; experiment: Inhibition of PDGFRbeta expression in human MNNG/HOS cells incubated for 48 hrs by Western blot analysis; format: functional, cell-based
[15] = test system: HOS-TE85; experiment: Inhibition of cell migration in human MNNG/HOS cells at 0.1 to 0.4 uM measured for 48 hrs scratch wound healing migration assay; format: functional, cell-based; details: dose 0.1-0.4 µM
[16] = test system: HOS-TE85; experiment: Inhibition of colony formation in human MNNG/HOS cells by crystal violet staining based analysis; format: functional, cell-based; details: dose 0.1-0.4 µM, DDE = dose-dependent effect
[17] = test system: HOS-TE85; experiment: Antiproliferative activity against human MNNG/HOS cells xenografted in BALB/c nude mouse assessed as suppression of tumor growth at 15 to 30 mg/kg/day, po dosed for 14 days by immunohistochemistry analysis; format: functional, organism-based; details: dose lower […], dose upper 30.0 mg/kg/day, time 14.0 day
[18] = test system: HOS-TE85; experiment: Antiinvasive activity against human MNNG/HOS cells assessed as reduction in cell spreading area upto 48 hrs by DAPI staining based immunofluorescence microscopic analysis; format: functional; details: dose 0.1-0.4 µM, DDE = dose-dependent effect
[19] = target: T1, Platelet-derived growth factor receptor beta; experiment: Inhibition of PDGFRbeta phosphorylation in human MNNG/HOS cells incubated for 48 hrs by Western blot analysis; format: cell-based
[20] = test system: MG-63; experiment: Induction of apoptosis in human MG-63 cells at 0.4 uM after 48 hrs by Annexin V/PI staining based flow cytometric analysis; format: functional, cell-based
[21] = target: T1, Platelet-derived growth factor receptor beta; experiment: Inhibition of PDGFRbeta-mediated downstream signalling in human MNNG/HOS cells assessed as suppression of ERK phosphorylation at 0.1 to 0.4 uM measured after 48 hrs by western blot analysis; format: cell-based; details: dose 0.1-0.4 µM
[22] = test system: HOS-TE85; experiment: Inhibition of colony formation in human MNNG/HOS cells at 0.2 uM by crystal violet staining based analysis; format: functional, cell-based
[23] = test system: HOS-TE85; experiment: Antitumor activity against human MNNG/HOS cells xenografted in BALB/c nude mouse assessed as reduction in tumor growth at 15 to 30 mg/kg/day, po dosed for 14 days; format: functional, organism-based; details: dose lower […], dose upper 30.0 mg/kg/day, time 14.0 day
[24] = test system: HOS-TE85; experiment: Inhibition of cell adhesion in human MNNG/HOS cells at 0.1 to 0.4 uM measured after 48 hrs by crystal violet staining based analysis; format: functional; details: dose 0.1-0.4 µM
[25] = test system: MG-63; experiment: Antiinvasive activity against human MG-63 cells assessed as reduction in cell spreading area upto 48 hrs by DAPI staining based immunofluorescence microscopic analysis; format: functional; details: dose 0.1-0.4 µM, DDE = dose-dependent effect
[26] = target: Focal adhesion kinase 1 (Homo sapiens) (UniProt Q05397); experiment: Inhibition of FAK phosphorylation in human MG-63 cells incubated for 48 hrs by Western blot analysis; format: cell-based; details: dose 0.1-0.4 µM, DDE = dose-dependent effect
Sequence of Focal adhesion kinase 1 (Homo sapiens) (Q05397 2-1052 limits assumed): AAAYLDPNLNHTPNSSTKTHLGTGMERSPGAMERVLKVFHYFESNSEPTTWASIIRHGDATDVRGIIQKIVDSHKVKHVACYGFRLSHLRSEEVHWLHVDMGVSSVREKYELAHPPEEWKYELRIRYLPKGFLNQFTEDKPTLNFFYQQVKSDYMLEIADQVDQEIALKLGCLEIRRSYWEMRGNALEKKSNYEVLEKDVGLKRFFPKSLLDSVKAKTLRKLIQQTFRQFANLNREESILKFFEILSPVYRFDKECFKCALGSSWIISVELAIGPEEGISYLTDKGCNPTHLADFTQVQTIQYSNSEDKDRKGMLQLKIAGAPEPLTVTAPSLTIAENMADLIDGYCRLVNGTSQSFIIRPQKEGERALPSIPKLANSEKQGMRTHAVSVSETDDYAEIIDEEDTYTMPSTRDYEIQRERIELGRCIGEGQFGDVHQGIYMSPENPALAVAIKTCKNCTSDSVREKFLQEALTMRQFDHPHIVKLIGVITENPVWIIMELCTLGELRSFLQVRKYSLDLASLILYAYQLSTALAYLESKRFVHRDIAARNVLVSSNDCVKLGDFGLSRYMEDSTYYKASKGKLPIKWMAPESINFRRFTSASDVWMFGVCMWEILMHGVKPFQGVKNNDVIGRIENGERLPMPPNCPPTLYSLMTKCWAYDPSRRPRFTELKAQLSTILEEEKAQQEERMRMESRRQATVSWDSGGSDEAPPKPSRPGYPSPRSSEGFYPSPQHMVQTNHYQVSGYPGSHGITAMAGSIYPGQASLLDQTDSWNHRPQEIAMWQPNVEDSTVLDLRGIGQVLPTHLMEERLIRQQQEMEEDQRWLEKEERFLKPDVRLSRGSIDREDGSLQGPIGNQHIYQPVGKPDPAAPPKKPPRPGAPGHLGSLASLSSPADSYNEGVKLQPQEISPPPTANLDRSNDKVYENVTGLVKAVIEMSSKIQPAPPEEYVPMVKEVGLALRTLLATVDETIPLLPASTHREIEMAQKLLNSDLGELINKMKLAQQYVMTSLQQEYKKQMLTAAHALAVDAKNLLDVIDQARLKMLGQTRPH

[27] = target: Platelet-derived growth factor receptor alpha (Homo sapiens, UniProt P16234); experiment: Binding affinity to PDGFRalpha (unknown origin)
Sequence of Platelet-derived growth factor receptor alpha (P16234 whole entry): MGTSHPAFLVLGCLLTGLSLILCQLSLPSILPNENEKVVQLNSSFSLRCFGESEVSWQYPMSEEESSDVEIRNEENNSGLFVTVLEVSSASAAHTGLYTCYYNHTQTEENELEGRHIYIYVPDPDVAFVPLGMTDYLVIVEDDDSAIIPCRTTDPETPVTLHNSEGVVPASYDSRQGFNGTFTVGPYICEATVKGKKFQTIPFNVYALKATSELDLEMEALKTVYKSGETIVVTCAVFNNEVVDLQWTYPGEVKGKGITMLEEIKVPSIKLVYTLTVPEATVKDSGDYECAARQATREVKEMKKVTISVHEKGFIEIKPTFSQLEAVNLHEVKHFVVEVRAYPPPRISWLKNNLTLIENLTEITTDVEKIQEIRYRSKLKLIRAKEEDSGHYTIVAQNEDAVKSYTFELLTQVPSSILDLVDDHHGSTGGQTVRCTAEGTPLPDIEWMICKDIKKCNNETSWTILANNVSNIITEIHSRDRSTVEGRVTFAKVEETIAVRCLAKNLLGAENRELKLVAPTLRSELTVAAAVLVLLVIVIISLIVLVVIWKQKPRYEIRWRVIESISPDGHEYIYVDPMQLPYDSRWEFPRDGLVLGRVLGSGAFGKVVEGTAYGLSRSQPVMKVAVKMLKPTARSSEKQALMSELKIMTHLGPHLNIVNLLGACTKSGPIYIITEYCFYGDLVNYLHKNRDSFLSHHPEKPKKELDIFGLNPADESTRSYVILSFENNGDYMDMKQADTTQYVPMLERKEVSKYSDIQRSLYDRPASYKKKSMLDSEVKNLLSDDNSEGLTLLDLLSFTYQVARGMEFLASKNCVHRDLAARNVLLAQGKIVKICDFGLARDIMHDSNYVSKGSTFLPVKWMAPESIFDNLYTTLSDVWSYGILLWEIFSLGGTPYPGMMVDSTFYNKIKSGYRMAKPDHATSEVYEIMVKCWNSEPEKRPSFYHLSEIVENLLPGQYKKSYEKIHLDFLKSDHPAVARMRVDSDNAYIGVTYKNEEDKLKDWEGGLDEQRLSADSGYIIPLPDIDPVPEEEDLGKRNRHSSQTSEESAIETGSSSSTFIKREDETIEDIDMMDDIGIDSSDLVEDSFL

[28] = test system: MG-63; experiment: Inhibition of PDGF AA/BB-stimulated human MG-63 cell proliferation measured after 48 hrs by MTT assay; format: functional, cell-based; details: dose 0.1-1.6 µM, DDE = dose-dependent effect
[29] = test system: HOS-TE85; experiment: Antiinvasive activity against human MNNG/HOS cells assessed as expression of FAK by measuring fluorescence at 0.1 to 0.4 uM upto 48 hrs by DAPI staining based immunofluorescence microscopic analysis; format: functional, cell-based; details: dose 0.1-0.4 µM
[30] = test system: HOS-TE85; experiment: Antimigratory activity against human MNNG/HOS cells assessed as expression of FAK by measuring fluorescence at 0.1 to 0.4 uM upto 48 hrs by DAPI staining based immunofluorescence microscopic analysis; format: functional, cell-based; details: dose 0.1-0.4 µM
[31] = test system: HOS-TE85; experiment: Induction of apoptosis in human MNNG/HOS cells at 0.4 uM after 48 hrs by Annexin V/PI staining based flow cytometric analysis; format: functional, cell-based
[32] = test system: MG-63; experiment: Inhibition of cell adhesion in human MG-63 cells at 0.1 to 0.4 uM measured after 48 hrs by crystal violet staining based analysis; format: functional; details: dose 0.1-0.4 µM
[33] = test system: MG-63; experiment: Antimigratory activity against human MG-63 cells assessed as reduction in cell spreading area upto 48 hrs by DAPI staining based immunofluorescence microscopic analysis; format: functional; details: dose 0.1-0.4 µM, DDE = dose-dependent effect
[34] = test system: HOS-TE85; experiment: Inhibition of PDGF AA/BB-stimulated human MNNG/HOS cell proliferation measured after 48 hrs by MTT assay; format: functional, cell-based; details: dose 0.1-1.6 µM, DDE = dose-dependent effect
[35] = test system: HOS-TE85; experiment: Inhibition of FAK expression in human MNNG/HOS cells incubated for 48 hrs by Western blot analysis; format: functional, cell-based; details: dose 0.1-0.4 µM, DDE = dose-dependent effect
[36] = target: T1, Platelet-derived growth factor receptor beta; experiment: Inhibition of PDGFRbeta in PDGF AA/BB stimulated human MNNG/HOS cells assessed as reduction in fluorescence intensity measured after 48 hrs by DAPI staining based immunofluorescence analysis; format: cell-based; details: dose 0.1-0.4 µM, DDE = dose-dependent effect
[37] = test system: MG-63; experiment: Inhibition of cell migration in human MG-63 cells assessed as reduction of cell mobility after 48 hrs by scratch-wound healing assay; format: functional, cell-based; details: dose 0.1-0.4 µM, DDE = dose-dependent effect
[38] = target: T1, Platelet-derived growth factor receptor beta; experiment: Inhibition of PDGFRbeta-mediated downstream signalling in human MG-63 cells assessed as suppression of ERK phosphorylation at 0.1 uM measured after 48 hrs by western blot analysis; format: cell-based

CCN1CCN(c2ccc(Nc3ncc(C)c(Nc4ccc5cn[nH]c5c4)n3)cc2OC)CC1
active: inhibition [1] | inhibition [2] | inhibition [3] | Activity [4] Dde | Activity [5] | inhibition [6] | inhibition [7] | Activity [8] | inhibition [9] | inhibition [10] | inhibition [11] | inhibition [12] Dde | inhibition [13] | inhibition [14] | inhibition [15] | inhibition [16] Dde | Activity [17] | Activity [18] Dde | inhibition [19] | Activity [20] | inhibition [21] | inhibition [22] | Activity [23] | inhibition [24] | Activity [25] Dde | inhibition [26] Dde | Activity [27] | inhibition [28] Dde | Activity [29] | Activity [30] | Activity [31] | inhibition [32] | Activity [33] Dde | inhibition [34] Dde | inhibition [35] Dde | inhibition [36] Dde | inhibition [37] Dde | inhibition [38]
